Reference: the PolyMetriX glass transition set

Compound | glass transition temperature [°C]
*Oc1ccc(C2(c3ccc(OC(=O)c4ccc(Oc5ccc(C6(c7ccc(Oc8ccc(C(*)=O)cc8)cc7)CCC(C(C)(C)C)CC6)cc5)cc4)cc3)C3CC4CC(C3)CC2C4)cc1 (repeat unit) | 197.00
*c1ccc(Oc2ccc(-c3nc4ccc(Oc5ccc(N6C(=O)c7ccc(C(c8ccc9c(c8)C(=O)N(c8ccc(Oc%10ccc%11nc(*)c(-c%12ccccc%12)nc%11c%10)cc8)C9=O)(C(F)(F)F)C(F)(F)F)cc7C6=O)cc5)cc4nc3-c3ccccc3)cc2)cc1 (repeat unit) | 267.00
*C1C2CC(C(=O)OCCc3ccc(N(c4ccccc4)c4ccccc4)cc3)C(C2)C1* (repeat unit) | 307.00
*c1ccc(-c2c(-c3ccc(-c4ccccc4)cc3)cc(-c3ccc(OCCCCCCCCCCOc4ccc(-c5cc(-c6ccc(-c7ccccc7)cc6)c(-c6ccc(-n7c(=O)c8cc9c(=O)n(*)c(=O)c9cc8c7=O)cc6)c(-c6ccc(-c7ccccc7)cc6)c5)cc4)cc3)cc2-c2ccc(-c3ccccc3)cc2)cc1 (repeat unit) | 121.00
*c1ccc(-c2cc(-c3ccc(-c4ccccc4)cc3)cc(-c3ccc(N4C(=O)c5ccc(NC(=O)Nc6ccc(Oc7ccccc7-c7ccccc7Oc7ccc(NC(=O)Nc8ccc9c(c8)C(=O)N(*)C9=O)cc7)cc6)cc5C4=O)cc3)n2)cc1 (repeat unit) | 249.00
*Oc1ccc(S(=O)(=O)c2ccc(Oc3ccc(C(C)(c4ccc(*)cc4)c4ccc(O)cc4)cc3)cc2)cc1 (repeat unit) | 228.00
*CCOC(=O)Nc1ccc(C)c(NC(=O)OCCOc2cc([N+](=O)[O-])ccc2/N=N/c2cn(*)c3ccc(-c4ccc5c(c4)c4ccccc4n5CCCC)cc23)c1 (repeat unit) | 160.00
*CCCCCCOC(=O)OCCCCCCN1C(=O)c2ccc(-c3ccc(-c4ccc5c(c4)C(=O)N(*)C5=O)cc3)cc2C1=O (repeat unit) | 73.00
*CCCC(*)(C)CC (repeat unit) | -23.00
*c1ccc(Oc2ccc(-c3nc4cc(-c5ccc6nc(*)c(-c7ccccc7)nc6c5)ccc4nc3-c3ccccc3)cc2)cc1 (repeat unit) | 292.50
*CC(*)(C)C(=O)OCCCCCCCCCCCCCCC(=O)NC1OC(CO)C(OC2OC(CO)C(O)C(O)C2O)C(O)C1O (repeat unit) | 133.00
*Sc1cc(C)c(*)cc1C (repeat unit) | 298.00
*Oc1ccc(C2(c3ccc(OC(*)=O)cc3)CCCCC2)cc1 (repeat unit) | 175.00
*CCCCCCCCCCNC(=O)/C=C(\C)C(=O)N* (repeat unit) | 74.00
*c1ccc(OC(=O)Nc2ccc(-c3ccc(NC(=O)Oc4ccc(-c5nc(-c6ccc(-c7nc(-c8ccc([N+](=O)[O-])cc8)c(-c8ccc([N+](=O)[O-])cc8)[nH]7)cc6)[nH]c5*)cc4)cc3OC)c(OC)c2)cc1 (repeat unit) | 223.00
*Oc1ccc(Oc2ccc(C(=O)c3ccc(*)cc3)cc2)cc1C(C)(C)C (repeat unit) | 177.00
*Oc1ccc(OC(=O)c2ccc(C(*)=O)cc2Oc2ccccc2)cc1 (repeat unit) | 105.00
*C(=O)Oc1ccc(-c2ccc(OC(=O)c3ccc4c(c3)C(=O)N(c3ccc(-c5ccc(N6C(=O)c7ccc(*)cc7C6=O)cc5C)c(C)c3)C4=O)cc2C)c(C)c1 (repeat unit) | 177.00
*c1ccc(Oc2ccc(C(=O)c3ccc(Oc4ccc(C(=O)c5ccc(Oc6ccc(-c7cc(*)n(-c8ccccc8)n7)cc6)cc5)cc4)cc3)cc2)cc1 (repeat unit) | 190.00
*CC(O)COc1c(Cl)cc(C(C)(C)c2cc(Cl)c(O*)c(Cl)c2)cc1Cl (repeat unit) | 135.00
*Oc1ccc(C(=O)Nc2cc(C(c3ccc(C)c(NC(=O)c4ccc(OC(=O)c5ccc(C(*)=O)cc5)cc4)c3)(C(F)(F)F)C(F)(F)F)ccc2C)cc1 (repeat unit) | 213.00
*CCCCCOC(=O)O* (repeat unit) | -42.9
